# Data published in patent US20070248646A1, “Use of azurocidin inhibitors in prevention and treatment of ocular vascular leakage” (priority 2006, published 2007).
# Tests used:
# [1] = target: T1, human neutrophil azurocidin (Homo sapiens, UniProt P20160); assay: Suppression of azurocidin-induced BRB breakdown (Evans Blue); type: in vivo, Brown Norway rats
# T1 construct: purchased Athens Research and Biotechology, Atlanta, Ga
# T1 sequence (P20160 27-248): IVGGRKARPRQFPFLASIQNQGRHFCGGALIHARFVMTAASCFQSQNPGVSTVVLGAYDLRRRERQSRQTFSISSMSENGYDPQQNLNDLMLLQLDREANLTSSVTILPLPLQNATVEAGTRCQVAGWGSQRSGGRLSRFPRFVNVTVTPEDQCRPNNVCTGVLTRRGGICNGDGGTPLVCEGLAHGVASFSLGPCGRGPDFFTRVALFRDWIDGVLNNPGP
# Description: This study employed Brown Norway rats, AZ (1 μg, 10 μg, 20 μg), PBS, aprotinin, VEGF164, and polyclonal anti-AZ antibody (1 μg). Briefly, Brown Norway rats received intravitreal injections of AZ (1 μg, 10 μg and 20 μg) in one eye and PBS in the contralateral eye. BRB breakdown was quantified using the Evans Blue (EB) technique at 1 hour, 3 hours, and 24 hours after intravitreal injection of AZ or PBS. To assess whether AZ induced retinal leukostasis, firm leukocyte adhesion was quantified at 3 hours and 24 hours post AZ injection (10 μg) using the ex vivo conconavalin leukostasis assay. To block AZ, rats were treated with a single intravenous injection of aprotinin (30,000KIU), prior to the intravitreal injections. To investigate whether AZ was involved in VEGF-induced BRB breakdown, rats received intravitreal injections of 50 ng recombinant mouse VEGF164 in one eye and PBS in the other eye and were treated intravenously with aprotinin (50,000KIU every eight hours) or polyclonal anti-AZ antibody (1 μg). BRB breakdown and retinal leukostasis were quantified 24 hours after VEGF injection.
# In a second group, the rats were additionally treated intravenously with the azurocidin inhibitor, aprotinin (Trasylol®, Bayer Pharmaceuticals). […] The retinas were analyzed one hour after azurocidin administration using the Evans Blue technique.
# Retinal vascular permeability was quantified as previously described (Qaum et al. (2002) supra, Xu et al. (2001) INVEST. OPHTHALMOL. VIS. SCI. 42; 789-94). […] The background-subtracted absorbance was determined by measuring each sample at 620 nm (the absorbance maximum for Evans blue dye in formamide) and 740 nm (the absorbance minimum) with a spectrophotometer. The concentration of dye in the plasma was calculated from a standard curve of Evans blue dye in formamide. […] The background-subtracted absorbance was determined by measuring each sample at 620 nm (the absorbance maximum for Evans blue dye in formamide) and 740 nm (the absorbance minimum). The concentration of dye in the extracts was calculated from a standard curve of Evans blue dye in formamide. […]
# [2] = tested on: retinal vascular leakage in diabetic retinopathy; assay: Retinal vascular leakage in streptozotocin-induced diabetic retinopathy; type: in vivo, Long-Evans rats; details: two weeks after streptozotocin-induced diabetes; aprotinin 50,000 KIU, systemic
# Description: After an overnight fast, Long-Evans rats (Charles River, Wilmington, Mass.), weighing 200-250 g, received single 60 mg/kg intraperitoneal injections of streptozotocin (Sigma, St. Louis, Mo.) in 10 mM citrate buffer (pH 4.5). Control nondiabetic animals received citrate buffer alone. Animals with blood glucose levels greater than 250 mg/dl 24 hours after the streptozotocin injections were considered diabetic. The rats were fed standard laboratory chow and allowed free access to water. Before each experiment, the diabetic state was reconfirmed to be 250 mg/dl or higher.
# Asterisks indicate statistical significance.
substance,measurement,setting,value
aprotinin,basal levels of retinal vascular leakage,[1]; aprotinin treatment alone (PBS-injected eye),did not affect basal levels of retinal vascular leakage
same,block of AZ-induced leakage,"[1]; single i.v. 30,000KIU 1 hour before intravitreal azurocidin 20 μg, Evans Blue 1 hour later",greater than 98%
same,Evans Blue retinal leakage in AZ-injected eyes,"[1]; single i.v. 30,000KIU 1 hour before intravitreal azurocidin, AZ alone 45±17",6±0.64 μl plasma/g retina/h
same,vascular leakage (normalized BRB leakage),[2],comparable to that of normal animals
